This is an account of results in publication PMC4026281 (Journal of neurochemistry, 2012).

The subject of test [1] is nAChRs on SuSC GABAergic terminals (crude synaptosomes). In kind it is biochemical, mouse.
For another test, the system named is nAChRs in SuSC membranes. In kind it is binding, mouse (C57BL/6).
For test [2], the system named is nAChRs in SC core membranes. It counts as binding, mouse (C57BL/6).
A further test concerns α4β2* nAChR. As to conditions: cited from earlier work.
In test [3] the test system is nAChRs, SuSC crude synaptosomes of nAChR subunit null mutant mice. In kind it is biochemical, mouse.
In test [4] the test system is α6β2*-nAChR, crude striatal synaptosomes. It counts as biochemical, mouse.
For test [5], the target named is α-CtxMII-sensitive nAChR, SuSC crude synaptosomes (Mus musculus, UniProt Q8R4G9+Q9ERK7). In kind it is biochemical.
Sequence of α-CtxMII-sensitive nAChR, SuSC crude synaptosomes (Q8R4G9 whole entry, looked up): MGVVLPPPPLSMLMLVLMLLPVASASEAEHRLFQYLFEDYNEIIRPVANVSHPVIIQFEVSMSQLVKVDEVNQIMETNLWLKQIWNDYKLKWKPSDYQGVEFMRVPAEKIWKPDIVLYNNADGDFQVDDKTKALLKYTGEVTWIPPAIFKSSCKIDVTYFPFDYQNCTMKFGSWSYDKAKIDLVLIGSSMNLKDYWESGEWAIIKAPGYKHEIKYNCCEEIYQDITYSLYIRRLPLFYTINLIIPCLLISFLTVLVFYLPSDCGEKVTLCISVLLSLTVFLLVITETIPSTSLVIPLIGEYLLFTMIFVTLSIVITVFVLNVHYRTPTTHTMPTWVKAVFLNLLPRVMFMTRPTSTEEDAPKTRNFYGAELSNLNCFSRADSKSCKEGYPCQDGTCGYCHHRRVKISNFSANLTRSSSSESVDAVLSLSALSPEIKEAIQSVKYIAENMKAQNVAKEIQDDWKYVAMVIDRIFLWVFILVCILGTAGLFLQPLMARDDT
Sequence of α-CtxMII-sensitive nAChR, SuSC crude synaptosomes (Q9ERK7 whole entry, looked up): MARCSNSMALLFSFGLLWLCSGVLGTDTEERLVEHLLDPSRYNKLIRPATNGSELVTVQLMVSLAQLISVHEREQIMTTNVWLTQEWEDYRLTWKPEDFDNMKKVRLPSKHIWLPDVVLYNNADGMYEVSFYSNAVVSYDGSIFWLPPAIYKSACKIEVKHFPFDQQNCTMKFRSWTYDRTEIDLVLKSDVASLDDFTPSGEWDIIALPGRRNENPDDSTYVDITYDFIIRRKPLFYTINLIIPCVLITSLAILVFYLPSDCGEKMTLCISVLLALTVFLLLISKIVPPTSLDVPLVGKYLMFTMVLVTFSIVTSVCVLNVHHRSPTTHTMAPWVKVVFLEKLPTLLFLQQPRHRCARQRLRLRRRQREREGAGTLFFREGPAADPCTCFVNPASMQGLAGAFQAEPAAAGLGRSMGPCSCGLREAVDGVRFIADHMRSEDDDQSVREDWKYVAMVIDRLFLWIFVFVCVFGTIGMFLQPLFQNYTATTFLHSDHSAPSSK
For another test, the system named is SuSC crude synaptosomes. It counts as biochemical, mouse. As to conditions: n = 5.
For test [6], the system named is α-CtxMII-sensitive nAChR, striatum. As to conditions: cited from earlier work.
For the next test, the system named is rat α3β2 receptors. The note with it: cited from earlier work.
A further test concerns α6β2* and α3β2* nAChR. As to conditions: cited from earlier work.
For the next test, the system named is nAChR, SuSC. As to conditions: rat, in vivo; cited from earlier work.

Where “and” joins values, the source holds several entries; their conditions need not be identical. Identical values can stand only once. Entries after “also recorded” stand apart in the source; their conditions may differ.

In the case of `[Cd]` [cadmium], in test [1], the “block of ACh-stimulated [^3H]-GABA release by cadmium” value came out at 94 ± 1% and the “effect on ACh-evoked [^3H]-GABA release (abstract)” value is reported as “blocked”.
For `C[C@]12N[C@H](Cc3ccccc31)c1ccccc12` [MK-801, (5S,10R)-(+)-5-Methyl-10,11-dihydro-5H-dibenzo[a,d]cyclohepten-5,10-imine], the “effect of MK-801 on ACh-stimulated [^3H]-GABA release” value in test [1] (200 μM, 5 min, n=4) is “no effect”.
In the case of `[125I]c1ccc(C2CC3CCC2N3)cn1` (stereo not shown) [[^125I]-epibatidine], the “Bmax, specific [^125I]epibatidine binding” value with nAChRs in SuSC membranes was determined as 100 ± 2 fmol/mg. The “Bmax, [^125I]-epibatidine binding” value in test [2] turned out to be 56 ± 2 fmol/mg.
With `CN1[C@@H]2CC[C@H]1C[C@@H](OC(=O)C(CO)c1ccccc1)C2` (stereo partly shown) [atropine], the “effect of atropine on ACh-stimulated [^3H]-GABA release” value in test [1] is “no effect”.
`CN1CCC[C@H]1c1cccnc1` [nicotine]: the “binding to α4β2* nAChR” value in the test on α4β2* nAChR is “binds nicotine and other agonists with high affinity”.
Turning to `CC(=O)OCC[N+](C)(C)C` [ACh, Acetylcholine], in test [1], the “loss of ACh-evoked [^3H]-GABA release in the absence of external calcium” value turned out to be 94 ± 3%; the “maximal ACh-stimulated [^3H]-GABA release, α-CtxMII-resistant component” value is listed as 1.00 ± 0.20 × baseline; the “maximal ACh-stimulated [^3H]-GABA release, α-CtxMII-sensitive component” value is listed as 0.71 ± 0.08 × baseline; the “maximal [^3H]-GABA release, high sensitivity component” value is listed as 0.68 ± 0.19. Besides, in test [1], the “maximal [^3H]-GABA release, low sensitivity component” value turned out to be 1.47 ± 0.21 and the “share of ACh-elicited [^3H]-GABA release due to α4β2*-type receptor” value is roughly 65%. Besides, in test [3], the “ACh-stimulated [^3H]-GABA release in β2^-/- mice” value is recorded as “entirely β2 subunit-dependent; also recorded: completely absent”; the “ACh-stimulated [^3H]-GABA release remaining in α4^-/- mice, of WT activity” value is reported as 9.7 ± 1.1 % of WT activity remaining; the “decrease of total function by α4 subunit deletion” value is greater than 90%.
Usually IC50 stands for the concentration that inhibits the measured activity by half. For the molecule α-conotoxin MII [α-CtxMII], in the test on nAChRs in SuSC membranes (0.0002 µM), the “specific [^125I]epibatidine binding sensitive to inhibition by α-CtxMII” value is 40 +/- 5% and 40.2 ± 5.2%. The IC50 in the test with nAChRs in SuSC membranes (read-out: IC50 for the α-CtxMII-resistant sites) was greater than 1000 nM. Also, in test [2], the “inhibition of [^125I]-epibatidine binding” value is on record as “not inhibited by α-CtxMII at concentrations below 1 μM”. Further, in test [1], the “concentration at which maximal inhibition of [^3H]-GABA release was achieved” value was 30 nM; the “effect of 100nM α-CtxMII on response to ACh” value is reported as “reduced the response seen by stimulation with ACh, but did not eliminate it”; the “nAChR-mediated SuSC [^3H]-GABA release inhibited by α-conotoxinMII (abstract)” value is recorded as “Approximately 50%”; the “α-CtxMII sensitive fraction of total [^3H]-GABA release” value was determined as 58 ± 7%. Also, in [1] (read-out: IC50, inhibition of ACh-stimulated [^3H]-GABA release), the IC50 was 1.05 nM. Further, in test [4], the “inhibition of ACh-stimulated [^3H]-dopamine release” value came to 41.2 ± 2.8%. Further, the “lag period during which no recovery was observed” value in test [5] is given as “approximately 5 min”. For the same molecule, in [5] (n = 3-4), the “functional recovery of ACh-evoked [^3H]-GABA release, of control” value worked out at 91 ± 18%; the “t1/2 for recovery from α-CtxMII inhibition” value was 5.2 min and ~5 min. Also, the “K^+-evoked [^3H]-GABA release in the presence of α-CtxMII” value in the test on SuSC crude synaptosomes was 14.1 ± 2.7. Besides, in [3], the “α-CtxMII sensitive [^3H]-GABA release after β3 subunit gene deletion” value is “unaffected” and the “α-CtxMII-sensitive [^3H]-GABA release after deletion of the α6 subunit” value was “no appreciable impact”. For the same molecule, in test [3] (n = 4), the “[^3H]-GABA release in α6-null mutant mice” value is “indistinguishable from the same measures in wild-type mice”. Further, the “t1/2 of recovery from α-CtxMII inhibition, [^3H]-DA release” value in test [6] is roughly 26 min. Further, in the test with rat α3β2 receptors, the “t1/2 of recovery from α-CtxMII inhibition, rat α3β2 receptors” value is reported as “approximately 4 minutes” and the “time by which full recovery was observed, rat α3β2 receptors” value is given as no more than 26 min. In the test with α6β2* and α3β2* nAChR, the “affinity for α6β2* and α3β2* nAChR subtypes” value is “high affinity”; the “subtypes inhibited by the α-conotoxin” value is “inhibits both α3β2*- and α6β2*-nAChR”.
As for `CN1[C@@H]2CC[C@H]1C[C@@H](OC(=O)c1cc(Cl)cc(Cl)c1)C2` [MDL-72222, Tropanyl 3,5-dichlorobenzoate], the “effect of MDL-72222 on ACh-stimulated [^3H]-GABA release” value in [1] (1 μM, 5 min, n=5) is given as “no effect”.
As to `CN1[C@@H](CC(=O)c2ccccc2)CCC[C@H]1C[C@H](O)c1ccccc1` [lobeline], the “visual responses originating in the SuSC” value with nAChR, SuSC was “reduced”.
Take `Nc1ncnc2c1ncn2[C@@H]1O[C@H](COP(=O)(O)OP(=O)(O)OP(=O)(O)O)[C@H]2OC3(O[C@H]21)C([N+](=O)[O-])=CC(=[N+]([O-])[O-])C=C3[N+](=O)[O-]` (stereo partly shown) [TNP-ATP]: the “effect of TNP-ATP on ACh-stimulated [^3H]-GABA release” value in [1] (10 μM, 4 min, n=3) is “no effect”.
With `N#Cc1cc2c(cc1[N+](=O)[O-])=NC(=O)C(=O)N=2` [CNQX, 6-Cyano-7-nitroquinoxaline-2,3-dione], the “effect of CNQX on ACh-stimulated [^3H]-GABA release” value in test [1] (100 μM, 5 min, n=4) is recorded as “no effect”.
With `CNC1(C)C2CCC(C2)C1(C)C` (stereo not shown) [Mecamylamine, mecamylamine], in test [1], the “effect on ACh-evoked [^3H]-GABA release (abstract)” value is on record as “blocked”. Also, the “effect of mecamylamine on ACh-stimulated [^3H]-GABA release” value in [1] (10 μM, 1 min, n=3) was “completely eliminated ACh-stimulated release of [^3H]-GABA”.
